Reference: patent publication US5922727A, “Antiviral substituted pyrimidinedione homocarbocyclic nucleoside derivatives and methods for the preparation thereof and compositions containing the same as active ingredients” (Samjin Pharmaceutical Co., Ltd, priority 1996, dated 1999)
Read-outs that look alike come from different tables or passages of the source.

Columns and labels:
[1] = tested on: HIV; type: cell-based; settings: ratio CD50/ED50
Experimental: (§1) The anti-HIV assays were based on the inhibition of the virus-induced cytopathic effect in MT-4 cells as a described method in J. Med. Chem, 34, 357, 1991. Briefly, MT-4 cells were suspended in culture medium at 2.5×10^5 cells/ml and infected with 1000 CCID50 (50% cell culture infective dose) of HIV. Immediately, after virus infection, 100 μl of the cell suspension was brought into each well of a flat-bottomedmicrotitray containing various concentrations of the test compounds. After a 4 or 5 days incubation at 37° C., the number of viable cells was determined by the 3-(4,5-dimethylthiazol-2-yl)-2,5-diphenyltetrazolium bromide (MTT) method, as disclosed in J. Virol. Methods, 20, 309, 1988. The cytotoxicity of the compounds of the present invention was assessed in parallel with their antiviral activity. It was based on the viability of mock-infected host cells as determined by the MTT methods.

[2] = tested on: MT-4 cells; assay: cytotoxicity: viability of mock-infected MT-4 host cells (MTT method); type: cell-based; parameters: unit not given here; settings: mock-infected MT-4 cells
Experimental: as §1

[3] = marker a (undefined, shared with AZT^a)
[4] = marker b (undefined, shared with AZT^b)
[5] = marker c (undefined, shared with AZT^c)
[6] = marker d (undefined, shared with AZT^d)
[7] = marker e (undefined, shared with AZT^e)

Cc1cn([C@H]2C[C@H](N=[N+]=[N-])[C@@H](CO)O2)c(=O)[nH]c1=O [AZT, reference compound]
S.I. [1, 3]: 5,825 | S.I. [1, 4]: 1,123 | S.I. [1, 5]: 83 | S.I. [1, 6]: 5,500 | S.I. [1, 7]: 3,172 | S.I. ([1]; no run marker): 2,633 | CD50 [2, 3]: 1.13 | CD50 [2, 4]: 0.73 | CD50 [2, 5]: 0.057 | CD50 [2, 6]: 2.75 | CD50 [2, 7]: 1.84 | CD50 ([2]; no run marker): 1.58

CCc1c(Sc2cc(C)cc(C)c2)n(CC2CC=CC2)c(=O)[nH]c1=O [Example 2, 1-[(Cyclopent-3-en-1-yl)methyl]-5-ethyl-6-(3,5-dimethylphenylthio)-2,4-pyrimidinedione]
S.I. ([1]; no run marker): 60,930 | CD50 ([2]; no run marker): 7.86

Cc1cc(C)cc(Sc2c(C(C)C)c(=O)[nH]c(=O)n2CC2CC=CC2)c1 [Example 4, 1-[(Cyclopent-3-en-1-yl)methyl]-5-isopropyl-6-(3,5-dimethylphenylthio) -2,4-pyrimidinedione]
S.I. [1, 3]: 2,111 | CD50 [2, 3]: 11.40

CCc1c(Sc2cc(C)cc(C)c2)n(CC2=CCC(CO)C2)c(=O)[nH]c1=O (centres unmarked) [Example 7, 1-[(4-Hydroxymethylcyclopent-1-en-1-yl)methyl]-5-ethyl-6-(3,5-dimethylphenylthio)-2,4-pyrimidinedione]
S.I. ([1]; no run marker): 3,004 | CD50 ([2]; no run marker): 7.69

Cc1cc(C)cc(Sc2c(C(C)C)c(=O)[nH]c(=O)n2CC2=CCC(CO)C2)c1 (centres unmarked) [Example 9, 1-[(4-Hydroxymethylcyclopent-1-en-1-yl)methyl]-5-isopropyl-6-(3,5-di-methylphenylthio)-2,4-pyrimidinedione]
S.I. ([1]; no run marker): 16,785 | CD50 ([2]; no run marker): 8.51

CCc1c(Oc2cc(C)cc(C)c2)n(CC2CC=CC2)c(=O)[nH]c1=O [Example 14, 1-[(Cyclopent-3-en-1-yl)methyl]-5-ethyl-6-(3,5-dimethylphenoxy)-2,4-pyrimidinedione]
S.I. [1, 4]: 400,238 | CD50 [2, 4]: 16.81

Cc1cc(C)cc(Oc2c(C(C)C)c(=O)[nH]c(=O)n2CC2CC=CC2)c1 [Example 15, 1-[(Cyclopent-3-en-1-yl)methyl]-5-isopropyl-6-(3,5-dimethylphenoxy)-2,4-pyrimidinedione]
S.I. [1, 3]: 1,624 | CD50 [2, 3]: 10.07

CCc1c(C(=O)c2cc(C)cc(C)c2)n(CC2CC=CC2)c(=O)[nH]c1=O [Example 16, 1-[(Cyclopent-3-en-1-yl)methyl]-5-ethyl-6-(3,5-dimethylbenzoyl)-2,4-pyrimidinedione]
CD50 [2, 5]: 1.52

Cc1cc(C)cc(C(=O)c2c(C(C)C)c(=O)[nH]c(=O)n2CC2CC=CC2)c1 [Example 17, 1-[(Cyclopent-3-en-1-yl)methyl]-5-isopropyl-6-(3,5-dimethylbenzoyl)-2,4-pyrimidinedione]
S.I. [1, 3]: 3,615 | CD50 [2, 3]: 19.16

CCc1c(Oc2cc(C)cc(C)c2)n(CC2=CCC(CO)C2)c(=O)[nH]c1=O (centres unmarked) [Example 18, 1-[(4-Hydroxymethylcyclopent-1-en-1-yl)methyl]-5-ethyl-6-(3,5-dimethyl-phenoxy)-2,4-pyrimidinedione]
S.I. ([1]; no run marker): 1,131 | CD50 ([2]; no run marker): 12.78

CCc1c(Oc2cc(C)cc(C)c2)n(CC2=CCCC2CO)c(=O)[nH]c1=O (centres unmarked) [Example 19, 1-[(5-Hydroxymethylcyclopent-1-en-1-yl)methyl]-5-ethyl-6-(3,5-dimethyphenoxy)-2,4-pyrimidinedione]
S.I. ([1]; no run marker): 1,384 | CD50 ([2]; no run marker): 55.37

Cc1cc(C)cc(Sc2c(C(C)C)c(=O)[nH]c(=O)n2CC2CCCC2)c1 [Example 20, 1-[(Cyclopentyl)methyl]-5-isopropyl-6-(3,5-dimethyphenylthio)-2,4-pyrimidinedione]
S.I. [1, 4]: 24,264 | CD50 [2, 4]: 11.38

Cc1cc(C)cc(Oc2c(C(C)C)c(=O)[nH]c(=O)n2CC2CCCC2)c1 [Example 21, 1-(Cyclopentyl)methyl-5-isopropyl-6-(3,5-dimethylphenoxy)-2,4-pyrimidinedione]
S.I. [1, 4]: 3,089 | CD50 [2, 4]: 10.04

Cc1cc(C)cc(C(=O)c2c(C(C)C)c(=O)[nH]c(=O)n2CC2CCCC2)c1 [Example 22, 1-(Cyclopentyl)methyl-5-isopropyl-6-(3,5-dimethylbenzoyl)-2,4-pyrimidinedione]
CD50 [2, 4]: 9.97

CCc1c(C(=O)c2cc(C)cc(C)c2)n(CC2CCCC2)c(=O)[nH]c1=O [Example 23, 1-(Cyclopentyl)methyl-5-ethyl-6-(3,5-dimethylbenzoyl)-2,4-pyrimidinedione]
S.I. [1, 6]: > 384,615 | CD50 [2, 6]: > 100

CCc1c(Sc2cc(C)cc(C)c2)n(CC2=CCC(CO)(CO)C2)c(=O)[nH]c1=O [Example 25, 1-{[4-Bis(hydroxymethyl)cyclopent-1-en-1-yl]methyl}-5-ethyl-6-(3,5-dimethyl-phenylthio)-2,4-pyrimidinedione]
S.I. ([1]; no run marker): 2,762 | CD50 ([2]; no run marker): 14.64

CCc1c(C(=O)c2cc(C)cc(C)c2)n(CCC2=CCCC2)c(=O)[nH]c1=O [Example 35, 1-[2-(Cyclopent-1-en-1-yl)ethyl]-5-ethyl-6-(3,5-dimethylbenzoyl)-2,4-pyrimidinedione]
S.I. [1, 6]: 9,958 | CD50 [2, 6]: 28.58

CCc1c(C(=O)c2cc(C)cc(C)c2)n(CCC2CC=CC2)c(=O)[nH]c1=O [Example 36, 1-[2-(Cyclopent-3-en-1-yl)ethyl]-5-ethyl-6-(3,5-dimethylbenzoyl)-2,4-pyrimidinedione]
S.I. [1, 6]: 30,294 | CD50 [2, 6]: 10.30

Cc1cc(C)cc(C(=O)c2c(C(C)C)c(=O)[nH]c(=O)n2CCC2CC=CC2)c1 [Example 37, 1-[2-(Cyclopent-3-en-1-yl)ethyl]-5-isopropyl-6-(3,5-dimethylbenzoyl)-2,4-pyrimidinedione]
S.I. [1, 6]: 13,377 | CD50 [2, 6]: 9.23

CCc1c(C(=O)c2cc(C)cc(C)c2)n(CCC2C=CCC2)c(=O)[nH]c1=O (centres unmarked) [Example 40, 1-{2-(Cyclopent-2-en-1-yl)ethyl]-5-ethyl-6-(3,5-dimethylbenzoyl)-2,4-pyrimidinedione]
S.I. [1, 7]: > 27,346 | CD50 [2, 7]: 7.11

Cc1cc(C)cc(Oc2c(C(C)C)c(=O)[nH]c(=O)n2CCC2C=CCC2)c1 (centres unmarked) [Example 42, 1-[2-(Cyclopent-2-en-1-yl)ethyl]-5-isopropyl-6-(3,5-dimethylphenoxy)-2,4-pyrimidinedione]
S.I. [1, 7]: 2,353 | CD50 [2, 7]: 7.53

CCc1c(C(=O)c2cc(C)cc(C)c2)n(CCC2CCCC2)c(=O)[nH]c1=O [Example 44, 1-(2-Cyclopentyl)ethyl-5-ethyl-6-(3,5-dimethylbenzoyl)-2,4-pyrimidinedione]
S.I. [1, 7]: 5,958 | CD50 [2, 7]: 8.58

CCc1c(Sc2ccccc2)n(CC2CC2(CO)CO)c(=O)[nH]c1=O (centres unmarked) [Example 48, 1-[2-Bis(hydroxymethyl)cyclopropane-1-yl]methyl-5-ethyl-6-phenylthio-2,4-pyrimidinedione]
S.I. [1, 5]: 923 | CD50 [2, 5]: 96.95

CCc1c(Sc2cc(C)cc(C)c2)n(CC2CC2(CO)CO)c(=O)[nH]c1=O (centres unmarked) [Example 49, 1-[2-Bis(hydroxymethyl)cyclopropane-1-yl]methyl-5-ethyl-(3,5-dimethylphenylthio)-2,4-pyrimidinedione]
S.I. [1, 5]: 18,271 | CD50 [2, 5]: 21.56

CCc1c(Oc2cc(C)cc(C)c2)n(CC2CC2(CO)CO)c(=O)[nH]c1=O (centres unmarked) [Example 50, 1-[2-Bis(hydroxymethyl)cyclopropane-1-yl]methyl-5-ethyl-6-(3,5-dimethylphenoxy)-2,4-pyrimidinedione]
S.I. [1, 5]: 7,763 | CD50 [2, 5]: 111.79

CCc1c(C(=O)c2cc(C)cc(C)c2)n(CC2CC2(CO)CO)c(=O)[nH]c1=O (centres unmarked) [Example 51, 1-[2-Bis(hydroxymethyl)cyclopropane-1-yl]methyl-5-ethyl-6-(3,5-dimethylbenzoyl)-2,4-pyrimidinedione]
S.I. [1, 5]: 12,165 | CD50 [2, 5]: 128.95

CC(C)c1c(Sc2ccccc2)n(CC2CC2(CO)CO)c(=O)[nH]c1=O (centres unmarked) [Example 52, 1-[2-Bis(hydroxymethyl)cyclopropane-1-yl]methyl-5-isopropyl-6-phenylthio-2,4-pyrimidinedione]
S.I. [1, 5]: 1,496 | CD50 [2, 5]: 104.12

Cc1cc(C)cc(Sc2c(C(C)C)c(=O)[nH]c(=O)n2CC2CC2(CO)CO)c1 (centres unmarked) [Example 53, 1-[2-Bis(hydroxymethyl)cyclopropane-1-yl]methyl-5-isopropyl-6-(3,5-dimethylphenylthio)-2,4-pyrimidinedione]
S.I. [1, 5]: 7,199 | CD50 [2, 5]: 13.39

Cc1cc(C)cc(Oc2c(C(C)C)c(=O)[nH]c(=O)n2CC2CC2(CO)CO)c1 (centres unmarked) [Example 54, 1-[2-Bis(hydroxymethyl)cyclopropane-1-yl]methyl-5-isopropyl-6-(3,5-dimethylphenoxy)-2,4-pyrimidinedione]
S.I. [1, 5]: 3,004 | CD50 [2, 5]: 7.69

Cc1cc(C)cc(C(=O)c2c(C(C)C)c(=O)[nH]c(=O)n2CC2CC2(CO)CO)c1 (centres unmarked) [Example 55, 1-[2-Bis(hydroxymethyl)cyclopropane-1-yl]methyl-5-isopropyl-6-(3,5-dimethylbenzoyl)-2,4-pyrimidinedione]
S.I. [1, 5]: 21,806 | CD50 [2, 5]: 131.71
